Consider 18 compounds from patent US20120122843A1, “Compounds and Their Use for Treatment of Amyloid Beta-Related Diseases” (ASTRAZENECA AB, priority 2010, published 2012).

Structures are written as SMILES.

For one test, the system named is Aβ42. Put plainly: Aβ42 release from HEK cells stably expressing APPswe (MSD electrochemiluminescence). The test is classed as cell-based, Human. Conditions: 4-6 h incubation with test compound, Aβ42 secreted to cell medium. As to the method:
The level of activity of the compounds on Aβ formation was tested using the following method:
Compounds were diluted in 100% DMSO and stored at […] prior to use. Human Embryonic Kidney (HEK) cell line stably expressing APP with the Swedish mutation (APPswe) were cultured using Dulbecco's Modified Eagles medium (DMEM) supplied with […] glucose, Na-pyruvate and GlutaMAX with 10% FBS, 100 U/ml penicillin-streptomycin (PEST) respectively, 1× non-essential amino acids (NEAA), […] Hepes, 100 μg/ml Zeocine. Cells at about 80% confluence were washed with PBS, detached from culture flasks using 1× Trypsin/EDTA diluted in PBS, re-suspended in cell media and plated in 384-well poly-d-lysine coated cell culture plates at about 10000-15000 cells/well, in 25 μL cell media. Optionally, cryo-preserved cells (frozen and stored at −140° C. in 90% cell media and 10% DMSO) were thawed, washed and plated as above. Next the cells were incubated for 15-24 h at 37° C. and 5% CO2, after which cell medium was changed. Fresh medium containing test compound diluted ×200 from prepared compound plate was added to the cells before further incubation for 4-6 hours at 37° C. and 5% CO2. After incubation with test compound the amount of Aβ peptides, including Aβ42, Aβ40, Aβ39, Aβ38 and Aβ37, as well as total Aβ levels, secreted to cell medium was analyzed using the electrochemiluminescence assay technology from Meso Scale Discovery (MSD), in combination with specific antibodies raised against the different Aβ peptides. Aβ42, Aβ40 and Aβ38 antibodies were purchased from MSD and Aβ37 and Aβ39 were made in house. Total Aβ was measured using a combination of 6E10 and 4G8 anti Aβ antibodies from MSD. Potential cytotoxic effects of the compounds were usually assayed by measuring the ATP content (ViaLight) from cell lysate.

A further test has as its system Notch. The test is described as follows: Release and translocation of Notch intracellular domain into the nucleus, HEK/AENotch cells (NICD immunostaining, ImageXpress). The format is cell-based, Human. Conditions: 3 μM Lactacystin, 4-6 h incubation, nucleus/cytosol NICD fluorescence ratio. As to the method:
The level of activity of the compounds on release and translocation of Notch intracellular domain into the cell nucleus was tested using the following method:
Compounds were diluted in 100% DMSO and stored at […] prior to use. Human Embryonic Kidney cell line overexpressing Notchl-E-human-myc construct (referred to as HEK/AENotch) were cultured in T75 cm^2 or T225 cm^2 cell culture flasks using Dulbecco's Modified Eagles medium (DMEM) supplemented with […] glucose, Na-pyruvate and GlutaMAX with 10% FBS, 100 U/ml penicillin-streptomycin (PEST) respectively, 1× non-essential amino acids (NEAA), […] Hepes and 100 μg/ml Hygromycin. Cells at about 80% confluence were washed with PBS, detached from the flask bottom using 1× Trypsin/EDTA diluted in PBS, re-suspended in cell media and plated in 384-well plates at about 10000 cells/well, in 25 μL cell media. Optionally, cryo-preserved cells (frozen and stored at −140° C. in 90% cell media and 10% DMSO) were thawed, washed and plated as above. Next the cells were incubated for 15-24 h at 37° C. and 5% CO2, after which cell medium was replaced with fresh medium containing 3 μM Lactacystin and test compound diluted ×200 from prepared compound plate giving 0.5% final DMSO concentration, and the highest compound concentration typically 25 μM. Cells were then incubated 4-6 h with test compound before being fixed, washed and immunostained with NICD antibody (rabbit Notch 1 (C-20)). Image acquisition of cytosolic/membrane and nuclear fluorescence as well as subsequent analysis of the nucleus and cytosolic fluorescence ratio was carried out using ImageXpress. Potential cytotoxic effects of the compounds were usually assayed by analysis of nucleus area or cell number.

[1] abbreviates: Homo sapiens, HEK293, HEK cells expressing APPswe.

What is called IC50 is the point on the concentration scale where inhibition reaches its midpoint. For `COc1nc(Nc2ccc3c(n2)OC(C2CC2)CN(C)C3C)ccc1-c1cnn(C)c1` (single isomer, unassigned) [Example 17, 2-Cyclopropyl-N-(6-methoxy-5-(1-methyl-1H-pyrazol-4-yl)pyridin-2-yl)-4,5-dimethyl-2,3,4,5-tetrahydropyrido[3,2-f][1,4]oxazepin-8-amine], the IC50 with Aβ42 (HEK cells expressing APPswe) was 14 nM; with Notch (Homo sapiens) it was > 7900 nM.

In the case of `COc1nc(Nc2ccc3c(n2)OC(C2CC2)CN(C)C3C)ccc1-c1cnn(C)c1` (single isomer, unassigned) [Example 18, 2-Cyclopropyl-N-(6-methoxy-5-(1-methyl-1H-pyrazol-4-yl)pyridin-2-yl)-4,5-dimethyl-2,3,4,5-tetrahydropyrido[3,2-f][1,4]oxazepin-8-amine], the figures for the IC50 in the test with Aβ42 (HEK cells expressing APPswe) and with Notch were 37 nM and > 7900 nM, respectively.

Regarding `COc1nc(Nc2ccc3c(n2)OC(C2CC2)CN(C)C3C)ccc1-c1cnn(C)c1` (single isomer, unassigned) [Example 19, 2-Cyclopropyl-N-(6-methoxy-5-(1-methyl-1H-pyrazol-4-yl)pyridin-2-yl)-4,5-dimethyl-2,3,4,5-tetrahydropyrido[3,2-f][1,4]oxazepin-8-amine], the IC50 with Aβ42 (HEK cells expressing APPswe) amounted to 124 nM.

In the case of `COc1nc(Nc2ccc3c(n2)OC(C2CC2)CN(C)C3C)ccc1-c1cnn(C)c1` (single isomer, unassigned) [Example 20, 2-Cyclopropyl-N-(6-methoxy-5-(1-methyl-1H-pyrazol-4-yl)pyridin-2-yl)-4,5-dimethyl-2,3,4,5-tetrahydropyrido[3,2-f][1,4]oxazepin-8-amine], the IC50 in the test on Aβ42 (HEK cells expressing APPswe) is 91 nM; in the test on Notch, > 7900 nM.

Take `COc1nc(Nc2cc(C)c3c(n2)OC(c2nc(C)cs2)CN(C)C3)ccc1-c1cnn(C)c1` (single isomer, unassigned) [Example 21, N-(6-Methoxy-5-(1-methyl-1H-pyrazol-4-yl)pyridin-2-yl)-4,6-dimethyl-2-(4-methylthiazol-2-yl)-2,3,4,5-tetrahydropyrido[3,2-f][1,4]oxazepin-8-amine]: the IC50 with Aβ42 (HEK cells expressing APPswe) stood at 179 nM.

With `COc1nc(Nc2cc(C)c3c(n2)OC(c2nc(C)cs2)CN(C)C3)ccc1-c1cnn(C)c1` (single isomer, unassigned) [Example 22, N-(6-Methoxy-5-(1-methyl-1H-pyrazol-4-yl)pyridin-2-yl)-4,6-dimethyl-2-(4-methylthiazol-2-yl)-2,3,4,5-tetrahydropyrido[3,2-f][1,4]oxazepin-8-amine], the results for the concentration for half-maximal inhibition (IC50) in the test on Aβ42 (HEK cells expressing APPswe) and with Notch (Homo sapiens) were 10 nM and 1680 nM, respectively.

With `COc1nc(Nc2cc(C)c3c(n2)OC(C2CCCO2)CN(C)C3)ccc1-c1cnn(C)c1` (single isomer, unassigned) [Example 25, N-(6-Methoxy-5-(1-methyl-1H-pyrazol-4-yl)pyridin-2-yl)-4,6-dimethyl-2-(tetrahydrofuran-2-yl)-2,3,4,5-tetrahydropyrido[3,2-f][1,4]oxazepin-8-amine], the IC50 is 73 nM with Aβ42 (setting [1]) and > 7900 nM in the test on Notch (Homo sapiens).

Take `COc1nc(Nc2cc(C)c3c(n2)OC(C2CCCO2)CN(C)C3)ccc1-c1cnn(C)c1` (single isomer, unassigned) [Example 26, N-(6-Methoxy-5-(1-methyl-1H-pyrazol-4-yl)pyridin-2-yl)-4,6-dimethyl-2-(tetrahydrofuran-2-yl)-2,3,4,5-tetrahydropyrido[3,2-f][1,4]oxazepin-8-amine]: the IC50 in the test on Aβ42 (HEK cells expressing APPswe) was 56 nM; in the test on Notch, > 7900 nM.

As to `COc1nc(Nc2ccc3c(n2)OC(c2nc(C)cs2)C(C)N(C)C3)ccc1-c1cnn(C)c1` (single isomer, unassigned) [Example 29, N-(6-Methoxy-5-(1-methyl-1H-pyrazol-4-yl)pyridin-2-yl)-3,4-dimethyl-2-(4-methylthiazol-2-yl)-2,3,4,5-tetrahydropyrido[3,2-f][1,4]oxazepin-8-amine], the IC50 in the test with Aβ42 (HEK cells expressing APPswe) was 68 nM; in the test on Notch, 5000 nM.

Consider `COc1nc(Nc2ccc3c(n2)OC(c2nc(C)cs2)C(C)N(C)C3)ccc1-c1cnn(C)c1` (single isomer, unassigned) [Example 30, N-(6-Methoxy-5-(1-methyl-1H-pyrazol-4-yl)pyridin-2-yl)-3,4-dimethyl-2-(4-methylthiazol-2-yl)-2,3,4,5-tetrahydropyrido[3,2-f][1,4]oxazepin-8-amine], for which the values for the IC50 in the test on Aβ42 (HEK cells expressing APPswe) and in the test with Notch were 7 nM and > 25000 nM, respectively.

`COc1nc(Nc2ccc3c(n2)OC(CC(F)(F)F)CN(C)C3)ccc1-c1ccc(=O)n(C)c1` (single isomer, unassigned) [Example 43, 5-(2-Methoxy-6-(4-methyl-2-(2,2,2-trifluoroethyl)-2,3,4,5-tetrahydropyrido[3,2-f][1,4]oxazepin-8-ylamino)pyridin-3-yl)-1-methylpyridin-2(1H)-one]: the half-maximal inhibitory concentration (IC50) in the test with Aβ42 (setting [1]) was 493 nM.

`COc1nc(Nc2ccc3c(n2)OC(CC(F)(F)F)CN(C)C3)ccc1-c1ccc(=O)n(C)c1` (single isomer, unassigned) [Example 44, 5-(2-Methoxy-6-(4-methyl-2-(2,2,2-trifluoroethyl)-2,3,4,5-tetrahydropyrido[3,2-f][1,4]oxazepin-8-ylamino)pyridin-3-yl)-1-methylpyridin-2(1H)-one]: in the test on Aβ42 (HEK cells expressing APPswe), the IC50 was found to be 374 nM.

For `COc1nc(Nc2ccc3c(n2)OC(CC(F)(F)F)CN(C)C3)ccc1-c1cnc(C)o1` (single isomer, unassigned) [Example 63, N-[6-Methoxy-5-(2-methyloxazol-5-yl)-2-pyridyl]-4-methyl-2-(2,2,2-trifluoroethyl)-3,5-dihydro-2H-pyrido[3,2-f][1,4]oxazepin-8-amine], the IC50 with Aβ42 (setting [1]) was found to be 3 nM.

Take `COc1nc(Nc2ccc3c(n2)OC(CC(F)(F)F)CN(C)C3)ccc1-c1cnc(C)o1` (single isomer, unassigned) [Example 64, N-[6-Methoxy-5-(2-methyloxazol-5-yl)-2-pyridyl]-4-methyl-2-(2,2,2-trifluoroethyl)-3,5-dihydro-2H-pyrido[3,2-f][1,4]oxazepin-8-amine]: the IC50 in the test on Aβ42 (HEK cells expressing APPswe) was 4 nM.

For `COc1nc(Nc2ccc3c(n2)OC(c2nc(C)cs2)CN(C)C3)ccc1-c1cnn(C)c1` (single isomer, unassigned; (+)) [Example 10, (+)-N-(6-Methoxy-5-(1-methyl-1H-pyrazol-4-yl)pyridin-2-yl)-4-methyl-2-(4-methylthiazol-2-yl)-2,3,4,5-tetrahydropyrido[3,2-f][1,4]oxazepin-8-amine], in the test with Aβ42 (HEK cells expressing APPswe), the IC50 came out at 226 nM.

As to `CN1Cc2ccc(Nc3ccc(-c4cnn(C)c4)cn3)nc2O[C@H](c2ccccc2)C1` [Example 15, (R)-4-Methyl-N-(5-(1-methyl-1H-pyrazol-4-yl)pyridin-2-yl)-2-phenyl-2,3,4,5-tetrahydropyrido[3,2-f][1,4]oxazepin-8-amine], in the test with Aβ42 (setting [1]), the half-maximal inhibitory concentration (IC50) is 137 nM.

As to `COc1nc(Nc2ccc3c(n2)OC(c2ncccc2C)CN(C)C3)ccc1-c1cnn(C)c1` (centres unmarked) [Example 16, N-(6-Methoxy-5-(1-methyl-1H-pyrazol-4-yl)pyridin-2-yl)-4-methyl-2-(3-methylpyridin-2-yl)-2,3,4,5-tetrahydropyrido[3,2-f][1,4]oxazepin-8-amine], in the test with Aβ42 (setting [1]), the IC50 came to 305 nM.

With `COc1nc(Nc2ccc3c(n2)O[C@H](c2ccccc2)CN(C)C3)ccc1-c1ccc(=O)n(C)c1` [Example 45, (R)-5-(2-Methoxy-6-(4-methyl-2-phenyl-2,3,4,5-tetrahydropyrido[3,2-f][1,4]oxazepin-8-ylamino)pyridin-3-yl)-1-methylpyridin-2(1H)-one], the IC50 in the test with Aβ42 (setting [1]) is 38 nM.
